Measurements published in patent US10517869B2 (SENTISS PHARMA PRIVATE LIMITED, priority 2013, dated 2019).
Read-outs that look alike come from different tables or passages of the source.

Key:
[1] = cited from earlier work
[2] = Compatibility of quaternary ammonium preservative with brimonidine (precipitation); format: physicochemical; conditions: pH of around 6.0
From the text: Benzododecinium bromide forms an ion pair with brimonidine, thereby neutralizing the charge of brimonidine.
Benzododecinium halide (e.g., bromide) forms an ion pair with brimonidine, thereby neutralizing the charge of brimonidine. […] Thus it was surprising to find that benzododecinium halide is compatible with brimonidine.

[3] = at a pH of 6.4

## brimonidine tartrate
[1]; Study 1, pH 5.55
  Solubility: ≥164.4
[1]; Study 1, pH 5.92
  Solubility: 132.6
[1]; Study 1, pH 6.14
  Solubility: 30.4
[1]; Study 1, pH 6.57
  Solubility: 7.55
[1]; Study 1, pH 7
  Solubility: 2.69
[1]; Study 1, pH 7.45
  Solubility: 1.17
[1]; Study 1, pH 7.83
  Solubility: 0.62
[1]; Study 2, pH 5.5
  Solubility: ≥200.6
[1]; Study 2, pH 5.92
  Solubility: 160.8
[1]; Study 2, pH 6.06
  Solubility: 50.1
[1]; Study 2, pH 6.9
  Solubility: 3.19
[1]; Study 2, pH 7.4
  Solubility: 1.19
[1]; Study 2, pH 7.77
  Solubility: 0.63
[1]; Study 2, pH 7.86
  Solubility: 0.58
[1]; Study 2, pH 7.88
  Solubility: 0.54

## benzalkonium chloride
[2]
  precipitation with brimonidine: forms a hazy solution

## Brc1c(NC2=NCCN2)ccc2nccnc12 [Brimonidine]
[3]
  ionized: about 90%

## CCCCCCCCCCCC[N+](C)(C)Cc1ccccc1.[Br-] [benzododecinium bromide]
[2]
  precipitation with brimonidine: does not form a precipitation with brimonidine
